The record followed here is US20090143279A1 (priority 2007, published 2009).

In assay [1] the test system is nuOXPHOS transcripts. It counts as cell-based, mouse.
Assay [2] concerns mtOXPHOS transcripts. It counts as cell-based, mouse.
For assay [3], the system named is Ppargc1a. Nature of the assay: Quantitative PCR of Ppargc1a expression. To be noted: 5 μM deoxysappanone B or 1 μM mebendazole, FIG. 6c. It counts as cell-based, mouse. The procedure: (§1) (a) Compounds indicated in FIG. 4 were retested at 20 nM, 200 nM, 2 μM and 20 μM. Gene expression levels are represented as a row-normalized heat map, with negative controls (DMSO treatment) and positive controls (PGC-1α treatment) shown. Dose-response curves for ROS levels and viability are also provided, where the y-axis is the composite Z-score. Shaded area indicates the noise envelope (P<0.05). Data shown are the results of four biological replicates per concentration. […] (c) Quantitative PCR measurement of Ppargc1a gene expression, in response to either DMSO alone (Con), 5 μM deoxysappanone B (deo) or 1 μM mebendazole (meb). (d) Quantitative PCR measurement of the nuclear OXPHOS gene Atp5a1. Cells were either treated with compound alone (black bars) or in combination with […] of the ERRa inverse agonist XCT790 (gray bars). (e) Quantitative PCR measurement of Sod2, which encodes the ROS scavenger MnSOD, as in (d). Means and s.d. of expression data are the result of four biological replicates.
(§2) Gene expression. […]. The cDNA was then used for real-time PCR quantification of products for mouse Atp5a1 (Mm00431960_ml), Sod2 (MnSOD; Mm01313000_m1) and Ppargc1a (Mm00447183_m1), with Hprt1 (Mm03024075_m1) serving as an internal control, using TaqMan gene-expression assays (Applied Biosystems).

Assay [4] has as its system mitochondrial membrane potential. It counts as cell-based, mouse.
Assay [5] relates to cytochrome c. It counts as cell-based, mouse.
In assay [6] the test system is Atp5a1. Nature of the assay: Quantitative PCR of Atp5a1 (nuOXPHOS) expression. To be noted: for increase of Atp5a1 expression: compound alone, FIG. 6d. It counts as cell-based, mouse. The method, then: as §1
(§3) FIG. 8 show measurements of the coupling between nuclear and mitochondrial OXPHOS gene expression. (a) A two-dimensional plot of the composite Z-scores for nuOXPHOS and mtOXPHOS expression is shown. (b) Row-normalized heat map displaying the top 15 compounds in each quadrant (I-IV). Heat map of nuOXPHOS and mtOXPHOS expression is shown along with ATP levels. (c) Real-time PCR validation of select compounds at the indicated doses, using Atp5a1 (nuOXPHOS) and mt-Co1 (mtOXPHOS) normalized to Hprt1 (internal control). Values indicate average fold change from mock-treated (DMSO) wells ±s.d. in four biological replicates.
as §2

Assay [7] concerns cellular dehydrogenase activity.
Assay [8] concerns OXPHOS gene expression. It counts as cell-based, mouse. The conditions noted are these: for OXPHOS expression: primary screen, in words.
Assay [9] concerns reactive oxygen species. It counts as cell-based, mouse. To be noted: for ROS levels: primary screen, in words.
The test system of assay [10] is C2C12 myotubes.
The subject of assay [11] is mt-Co1. Nature of the assay: Real-time PCR of mt-Co1 (mtOXPHOS) expression. The conditions noted are these: 1 μM, FIG. 8c. It counts as cell-based, mouse.
Description: as §3, §2
For orientation: Quantitative PCR measures a nucleic acid by following its amplification.

Assay [12] has as its system Sod2. Nature of the assay: Quantitative PCR of Sod2 (MnSOD) expression. It counts as cell-based, mouse. To be noted: in combination with compound, FIG. 6e. The procedure: as §1, §2
Assay [13] concerns microtubules. The assay is described as follows: Tubulin immunofluorescence. It counts as cell-based, mouse. The conditions noted are these: C2C12 myotubes, 48 hours, 10 nM to 10 μM, FIG. 7.
Description: Tubulin immunofluorescence. […] Cells were washed once in 50 μl PBSTB2 (PBS with 0.1% (vol/vol) Tween-20 and 2% (wt/vol) BSA) and blocked in PBSTB2 for 1 h at room temperature or overnight at 4° C. Cells were incubated with an anti-α-tubulin (Sigma-Aldrich) antibody, 1:1,000 in PBSTB2, for 1 h at room temperature, and then washed three times with PBSTB2. […] Cells were visualized using an automated microscope (IX-Micro, Molecular Devices).
[14] abbreviates: 13.54 μM, composite Z-score vs DMSO.
[15] abbreviates: 20 μM, composite Z-score vs DMSO.
[16] abbreviates: Table 3, differentiated C2C12 myotubes, 48 h treatment, composite Z-score vs DMSO.
The mark [17] stands for this setting: retest at 20 nM to 20 μM, FIG. 6a.
[18] abbreviates: composite Z-score vs DMSO, Conc 14.22 μM.
Setting [19] is: composite Z-score vs DMSO, Conc 20 μM.
Where [20] appears, read: Table 7, C2C12 myotubes, 48 h, composite Z-score.
The mark [21] stands for this setting: normalized composite Z-score vs mock-treated (DMSO) wells, Conc 20 μM.
Where [22] appears, read: Table 6, C2C12 myotubes, 48 h, composite Z-score.
The mark [23] stands for this setting: composite Z-score vs mock-treated (DMSO) wells, Conc 20 μM.

Read-outs that look alike come from different tables or passages of the source.

As for `COC(=O)Nc1nc2ccc(C(=O)c3ccccc3)cc2[nH]1` [mebendazole, methyl[5-benzoyl-benzimidazol-2-carbamate], reference compound], the nucOX is −0.200 in [1] (setting [14]) and 1.212 in assay [1] (setting [15]). Also, the figures for the mitoOX in assay [2] (setting [14]) and in assay [2] (setting [15]) were 0.398 and 0.824, respectively. Further, the “expression of Ppargc1α” value in [3] is “approximately threefold”. Also, the ΔΨm was −0.054 in [4] (setting [14]) and −0.434 in assay [4] (setting [15]). Further, the cyt c in assay [5] (setting [14]) was −0.685; in [5] (setting [15]), −1.473. Further, the “increase of Atp5a1 expression” value in assay [6] came out at 20%. Moreover, the results for the MTT in assay [7] (setting [14]) and in [7] (setting [15]) were −2.797 and −2.060, respectively. Also, the GE-HTS in assay [8] (setting [14]) stood at 0.013; in [8] (setting [15]), 1.160. Also, the GEHTS_Zscore in [8] (setting [16]) is on record as 2.846. Also, the OXPHOS expression entry in assay [8] is given as “boost OXPHOS expression”. Also, the “dose at which OXPHOS expression increased” value in assay [8] (setting [17]) came out at 2 µM. Besides, the ROS in assay [9] (setting [14]) is given as −0.791; in assay [9] (setting [15]), −1.003. The “ROS Zscore” value in assay [9] (setting [16]) is reported as −1.003. Besides, in [9], the ROS levels result was “suppressing ROS levels”. In assay [9] (setting [17]), the “dose at which ROS levels decreased” value is 2 µM. In addition, the Viability turned out to be 0.064 in assay [10] (setting [14]) and 0.512 in assay [10] (setting [15]).
For `C[C@@H]1C[C@@H]([C@H](O)CC2CC(=O)NC(=O)C2)C(=O)[C@@H](C)C1` [Cycloheximide, reference compound], the results for the nucOX in assay [1] (setting [18]) and in assay [1] (setting [19]) were 1.354 and 0.688, respectively. Further, the nuOXPHOS expression entry in [1] (screen, relative to mtOXPHOS, in words) is “preferentially increase”. Moreover, the figures for the mitoOX in assay [2] (setting [18]) and in assay [2] (setting [19]) were −4.179 and −5.637, respectively. The ΔΨm in assay [4] (setting [18]) was determined as 2.318; in assay [4] (setting [19]), 2.759. In addition, the cyt c is reported as −1.378 in assay [5] (setting [18]) and −2.123 in assay [5] (setting [19]). Moreover, the nuOXPHOS elevated in assay [6] (1 μM, real-time PCR, FIG. 8c) is given as 1.3 fold. Also, the MTT in assay [7] (setting [18]) is recorded as −3.550; in [7] (setting [19]) it was −3.499. In assay [11], the mtOXPHOS decreased is recorded as 2.4 fold. The GE-HTS in assay [8] (setting [18]) is recorded as −0.504; in assay [8] (setting [19]), −1.482. Also, the ROS in [9] (setting [18]) is −3.415; in assay [9] (setting [19]), −2.628. In addition, the Viability in [10] (setting [18]) is reported as −2.540; in assay [10] (setting [19]), −2.804.
Regarding `COc1cc(/C=C(\C#N)C(=O)Nc2nnc(C(F)(F)F)s2)ccc1OCc1ccc(C(F)(F)F)cc1C(F)(F)F` [XCT790], the “effect of XCT790 on compound-induced Atp5a1 increase” value in [6] (in combination with mebendazole or deoxysappanone B, 5 mM XCT790, FIG. 6d) is “completely inhibited”. For the same compound, the “effect of XCT790 on compound-induced MnSOD increase” value in assay [12] is listed as “suppressible”.
Consider `COc1ccc2c(c1)OCC(Cc1ccc(O)c(OC)c1)C2=O` (centres unmarked) [deoxysappanone b 7,3′-dimethyl ether, reference compound], for which the “nucOXPHOS Z” value in [1] (setting [20]) came out at 2.25. The compound further gave a nucOX in assay [1] (setting [21]) of 2.250. Besides, the “mito-OXPHOS Z” value in [2] (setting [20]) was found to be 1.38. In assay [2] (setting [21]), this compound came in with a mitoOX of 1.383. Also, in assay [3], the “expression of Ppargc1α” value is recorded as “approximately threefold”. The ΔΨm in assay [4] (setting [21]) was −0.637. In [5] (setting [21]), this compound yielded a cyt c of −0.951. Besides, in [13], the “potency required for microtubule disruption” value was “the same as that required to affect OXPHOS expression and ROS level”. Besides, the “increase of Atp5a1 expression” value in [6] was determined as 20%. Further, the MTT in [7] (setting [21]) is given as −2.870. Further, the GEHTS_Zscore in assay [8] (setting [16]) and in [8] (setting [22]) was 2.577 each time. The compound also showed a GE-HTS in assay [8] (setting [21]) of 2.118. The “dose at which OXPHOS expression increased” value in [8] (setting [17]) is 2 µM. For the same compound, the “ROS Zscore” value in [9] (setting [16]) and in assay [9] (setting [22]) was −1.712 in each case. Further, in assay [9] (setting [21]), the ROS is −1.712. Besides, in assay [9] (setting [17]), the “dose at which ROS levels decreased” value is 2 µM. In [10] (setting [21]), the Viability was −1.120.
In the case of `CC(=O)O[C@H]1C(=O)[C@@]2(C)[C@H]([C@H](OC(=O)c3ccccc3)[C@]3(O)C[C@H](OC(=O)[C@H](O)[C@@H](NC(=O)c4ccccc4)c4ccccc4)C(C)=C1C3(C)C)[C@]1(OC(C)=O)CO[C@@H]1C[C@@H]2O` [paclitaxel, reference compound], the “potency required for microtubule disruption” value in assay [13] is “the same as that required to affect OXPHOS expression and ROS level”. The GEHTS_Zscore in [8] (setting [16]) worked out at 2.451. The OXPHOS expression entry in [8] is recorded as “boost OXPHOS expression”. Further, the “dose showing effect on OXPHOS expression” value in assay [8] (setting [17]) is recorded as 20 nM. The “ROS Zscore” value in [9] (setting [16]) is given as −1.967. Moreover, the ROS levels result in [9] is listed as “suppressing ROS levels”. Further, the “dose showing effect on ROS level” value in [9] (setting [17]) was determined as 20 nM.
The compound `CC(=O)Oc1c(C)c(C)c2c(c1C)CCC(C)(CCCC(C)CCCC(C)CCCC(C)C)O2` (stereo not drawn) [alpha-tochopheryl acetate] returned a nucOX in assay [1] (setting [15]) of 0.339. In [2] (setting [15]), the mitoOX is given as −0.094. In assay [4] (setting [15]), this compound registered a ΔΨm of −0.734. This compound had a cyt c in assay [5] (setting [15]) of 0.261. In [7] (setting [15]), this compound displayed an MTT of −1.398. The compound also returned a GE-HTS in assay [8] (setting [15]) of 0.212. In [9] (setting [15]), the ROS amounted to 0.364. Besides, in assay [10] (setting [15]), the Viability is on record as −0.957.
`CO/N=C(\C(=O)N[C@@H]1C(=O)N2C(C(=O)O)=C(CSc3nc(=O)c(=O)[nH]n3C)CS[C@H]12)c1csc(N)n1` [ceftriaxone]: the nucOX in assay [1] is −0.439. In assay [2], this compound returned a mitoOX of −0.382. This compound had a ΔΨm in [4] of −0.461. The same compound showed a cyt c in assay [5] of 0.481. In assay [7], this compound came in with an MTT of −1.040. In assay [8], this compound had a GE-HTS of −0.433. Also, the ROS in assay [9] is −0.002. Further, the Viability in assay [10] is on record as −0.792.
On to `COc1ccc(-c2coc3c(OC)c(OC)cc(OC)c3c2=O)cc1` [isotectorigenin trimethyl ether], for which the nucOX in [1] (setting [23]) was 0.426. This compound also displayed a mitoOX in assay [2] (setting [23]) of 0.418. Besides, the ΔΨm in assay [4] (setting [23]) is given as 0.413. In assay [5] (setting [23]), the cyt c was determined as 0.640. Moreover, the MTT in assay [7] (setting [23]) is listed as −1.465. This compound showed a GE-HTS in assay [8] (setting [23]) of 0.437. Moreover, in assay [9] (setting [23]), the ROS is 0.359. The compound further had a Viability in [10] (setting [23]) of 0.976.
